For data set [1], the system named is IL-36α-injected ears of Balb/c mice. As to the kind of experiment: H&E histology and epidermal thickness of IL-36α-injected ears. In kind it is in vivo, mouse. Here is the method: (§1) For in vivo dosing, mice were dosed subcutaneously with Compound 1.136 once daily (s.c. q.d. in 1% HPMC) at 90 mg/kg unless stated otherwise, starting at day 0 of a study. The in vivo dose was predicted based on in vitro potency and the pharmacokinetic response to a single dose in mice. The minimum antagonist concentration (at trough) to fully cover a gradient-sensing chemoattractant receptor has been determined to correspond with the IC90 concentration (Schall, T. J., and A. E. Proudfoot. 2011. Overcoming hurdles in developing successful drugs targeting chemokine receptors. Nat Rev Immunol 11: 355-363).
For hematoxylin and eosin (H&E) staining, ear tissue was initially fixed in paraformaldehyde for paraffin embedding. Samples were processed by standard procedures. Epidermal thickness was measured as the average of 7 measurements made along the center third (the area containing the lesion) of the length of the H&E stained ear sections using Photoshop CS4 software (Adobe®)

The next data set deals with T1, mCCR4 (Mus musculus, UniProt P51680).
T1 construct: expressed in transfected cells; host or cells: BaF3 cells (from the earlier reading's assay name)
T1 sequence (P51680 1-360): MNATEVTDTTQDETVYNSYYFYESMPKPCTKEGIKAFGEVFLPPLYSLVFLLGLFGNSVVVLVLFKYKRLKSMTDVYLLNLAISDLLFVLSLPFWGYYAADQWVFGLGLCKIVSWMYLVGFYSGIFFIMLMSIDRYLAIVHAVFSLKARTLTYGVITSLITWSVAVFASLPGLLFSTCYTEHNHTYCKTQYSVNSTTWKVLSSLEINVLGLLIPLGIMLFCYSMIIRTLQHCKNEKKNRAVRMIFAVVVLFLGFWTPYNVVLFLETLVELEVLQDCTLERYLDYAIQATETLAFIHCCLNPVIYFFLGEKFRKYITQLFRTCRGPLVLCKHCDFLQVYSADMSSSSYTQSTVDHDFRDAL
As to the kind of experiment: Chemotaxis of mCCR4-transfected BaF3 cells to mCCL22. In kind it is cell-based. Particulars: A2 value, unit not given.

For another data set, the target named is T2, mCCR7 (Mus musculus, UniProt P47774).
T2 construct: endogenous in cells; host or cells: mouse splenocytes (from the earlier reading's assay name)
T2 sequence (P47774 25-378): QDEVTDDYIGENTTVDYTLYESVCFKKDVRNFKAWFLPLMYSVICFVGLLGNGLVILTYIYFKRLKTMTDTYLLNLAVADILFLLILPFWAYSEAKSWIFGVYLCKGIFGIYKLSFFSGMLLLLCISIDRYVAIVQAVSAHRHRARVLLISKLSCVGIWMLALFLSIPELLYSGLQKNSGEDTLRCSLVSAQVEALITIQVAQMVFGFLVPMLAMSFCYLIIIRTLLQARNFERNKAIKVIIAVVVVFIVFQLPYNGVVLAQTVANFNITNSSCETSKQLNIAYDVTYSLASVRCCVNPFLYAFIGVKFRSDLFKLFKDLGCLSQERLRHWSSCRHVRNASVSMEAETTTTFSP
As to the kind of experiment: Chemotaxis of mouse splenocytes to mCCL19. Type of data set: cell-based. As to conditions: in serum; unit inferred.

For data set [2], the system named is IL-36α-injected ears of Balb/c mice. As to the kind of experiment: Mouse model of IL-36-induced ear thickening (GPP model). Type of data set: in vivo. The protocol:
as §1
Mouse model of IL-36-induced ear thickening. The right ear of 8-week old Balb/c mice received intradermal injections of recombinant murine IL-36α (150 μg per mouse formulated in PBS; BioLegend) every day for 5 days. Intradermal injections of PBS were given to the left ear as a control. Ear thickness was measured prior to start of study and each day thoughout the study using a digital micrometer. The imiquimod model of psoriasiform dermatitis was performed as previously described (Campbell Jet al. J Immunol. 2017; 199(9):3129-36. van der Fits et al. J Immunol 2009; 182(9):5836-45). Briefly, 5% Imiquimod (Fougera®) was applied daily to the shaved and depilated backs of Balb/c mice for up to 4 days. Control mice were treated with an application of Vaseline. Erythema, desquamation, and skin thickening were scored independently on a scale from 0 to 4 where 0=no disease; 1=slight disease; 2=moderate disease; 3=marked disease; 4=very marked disease (Campbell J et al. J Immunol. 2017; 199(9):3129-36. van der Fits et al. J Immunol 2009; 182(9):5836-45). Skin from the backs of mice was excised at the end of the study and processed for flow cytometry analysis,
Mouse anti-IL-17RA. (R&D Systems) was dosed as a positive control at 200-500 μg per mouse, i.p., q.d.

The target of a further data set is T3, mCXCR2 (Mus musculus, UniProt P35343).
T3 construct: endogenous in cells; host or cells: mouse bone marrow cells (from the earlier reading's assay name)
T3 sequence (P35343 1-359): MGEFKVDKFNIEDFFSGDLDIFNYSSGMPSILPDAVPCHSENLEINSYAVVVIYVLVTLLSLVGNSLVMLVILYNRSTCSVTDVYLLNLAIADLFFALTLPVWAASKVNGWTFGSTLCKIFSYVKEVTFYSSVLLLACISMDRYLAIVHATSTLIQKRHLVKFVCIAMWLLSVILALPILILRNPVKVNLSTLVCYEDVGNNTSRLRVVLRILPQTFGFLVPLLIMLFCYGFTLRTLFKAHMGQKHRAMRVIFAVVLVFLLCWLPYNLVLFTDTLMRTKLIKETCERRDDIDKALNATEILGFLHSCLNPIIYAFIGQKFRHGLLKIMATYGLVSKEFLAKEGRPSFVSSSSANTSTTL
As to the kind of experiment: In vitro inhibition of chemotaxis, mouse bone marrow cells to mCXCL1. In kind it is cell-based. Particulars: in 100% serum. The protocol:
For in vitro determination of chemokine receptor inhibitor activity, Compound 1.136 was dissolved in DMSO to generate a stock concentration of 10 mM that was further diluted in chemotaxis migration buffer (HBSS, 1% BSA, 1% HEPES) to create a 10-point inhibitor gradient ranging from 100 nM-0.01 nM. Migration assay was then run in 100% mouse serum in response to rmCCL20 for CCR6 activity or rmCXCL1 for CXCR2 activity using ChemoTx plates (Neuroprobe, Gaithersburg Md.) and assessed by fluorescence staining of migrated cells with CyQuant (Thermo Fisher).

Data set [3] in a line: Plasma concentrations at trough after s.c. q.d. dosing. Type of data set: in vivo. Particulars: Balb/c, mouse, subcutaneous, 24 hours post final dose (day 5), mice. Here is the method: as §1

≈ marks a conversion by molar mass, not a printed value. Entries after “also recorded” stand apart in the source; their conditions may differ. Some results are limits rather than exact numbers.

Consider `CCC(C)(C)[C@@H](Nc1c(Nc2c(F)ccc3c2C(=O)N[C@H]3C)c(=O)c1=O)c1ccc(C)o1` [Compound 1.136], for which, in data set [1] (H&E ear sections after 4 daily IL-36α treatments, Compound 1.136 90 mg/kg/day s.c., anti-IL17RA 200 μg/mouse/day IP, 90 mg/kg/day), the IL-36α-mediated epidermal thickness result is reported as “significantly reduced IL-36α-mediated epidermal thickness; also recorded: substantially reduces epidermal thickness”. Further, the “Stratum corneum and leukocyte infiltration in histology” value in data set [1] (H&E sections after 4 days of treatment, Compound 1.136 90 mg/kg daily) is “the stratum corneum remained intact and leukocyte infiltration was reduced”. The “Histology of IL-36α-injected ears: dermal, epidermal and overall skin thickness” value in data set [1] (H&E sections after 4 days of treatment, Compound 1.136 90 mg/kg daily, 90 mg/kg) is “reduced IL-36α-induced dermal, epidermal and overall skin thickness; also recorded: substantially improves histology of IL-36α-injected ears”. Further, the “A2 for chemotaxis of mCCR4-transfected BaF3 cells to mCCL22 in serum” value at mCCR4 was >10,000. Besides, the concentration for half-maximal inhibition (IC50) at mCCR7 amounted to 6 µM; at mCXCR2 (read-out: IC50 on mouse CXCR2, in vitro inhibition of chemotaxis) it was 20 nM. In data set [2] (90 mg/kg Compound 1.136 vs saturating dose of anti-IL-17RA MAb (500 μg per mouse per day), Mann-Whitney), the “Effectiveness at reducing ear swelling, Compound 1.136 compared with α-IL-17RA” value is given as “significantly more effective than α-IL-17RA”. The “Time course of the effect on ear thickness” value in data set [2] (Balb/c mice, daily intradermal IL-36α, Compound 1.136 s.c. once daily) is on record as “appreciable after the second day of treatment”. For the same compound, the “IL-36-induced ear thickening / ear swelling” value in data set [2] (Balb/c mice, daily intradermal IL-36α, ear thickness after 4 days, Compound 1.136 30-90 mg/kg s.c. q.d., anti-IL-17RA 200 or 500 μg per mouse IP daily) was “dose-dependent decreases in IL-36-induced ear thickening; also recorded: ameliorates inflammatory swelling of IL-36α-injected ears”. Also, on mCXCR2 (read-out: IC90 for CXCR2 inhibition), the IC90 was 0.145 µg/mL (≈ 0.33 µM). Moreover, the values for the concentration at 24 h in data set [3] (30 mg/kg s.c. q.d. in 1% HPMC), in data set [3] (60 mg/kg s.c. q.d. in 1% HPMC) and in data set [3] (90 mg/kg s.c. q.d. in 1% HPMC) were 267 ± 18 ng/mL, 323 ± 20 ng/mL and 973 ± 19 ng/mL, respectively.

(Values after US11684606B2, “Methods of treating generalized pustular psoriasis with an antagonist of CCR6 or CXCR2” (CHEMOCENTRYX, INC., priority 2018, dated 2023).)
